The source of these data is US12065436B2, “Cardiac sarcomere inhibitors” (Cytokinetics, Inc., priority 2018, dated 2024).

In assay [1] the test system is adult cardiac ventricular rat myocytes. In words: Adult ventricular myocyte contractility (fractional shortening). Format: cell-based. The conditions noted are these: 5 min, 5 μM compound, 5 min perfusion, read-out: % FS (% reduction from baseline) ± SEM. The procedure: Adult male Sprague-Dawley rats were anesthetized and the hearts were quickly excised, rinsed and the ascending aorta was cannulated. Continuous retrograde perfusion was initiated on the hearts at a perfusion pressure of 60 cm H2O. Hearts were first perfused with a nominally Ca^2+-free modified Krebs solution of the following composition: 113 mM NaCl, 4.7 mM KCl, 0.6 mM KH2PO4, 0.6 mM Na2HPO4, 1.2 mM MgSO4, 12 mM NaHCO3, 10 mM KHCO3, 30 mM taurine, 5.5 mM glucose and 10 mM Hepes (all Sigma). This medium is not recirculated and is continually aerated with a 95% O2/5% CO2 mixture. After approximately 3 minutes the heart was perfused with a modified Krebs buffer supplemented with collagenase (Worthington) and 12.5 μM final calcium concentration. The heart was removed from the cannulae after the heart appeared blanched and soft in appearance. The atria and vessels were removed and the ventricles were gently dissected into smaller pieces with forceps. The tissue was homogenized by repeated pipette trituration and the collagenase reaction was stopped by 10% bovine calf serum (BCS), sedimentation and resuspension in perfusion buffer containing 5% BCS and 12.5 uM CaCl2). Myocytes were made calcium tolerant by stepwise addition of a CaCl2) solution to a final concentration of 1.2 mM. Cells were then washed and resuspended in Tyrode's buffer (137 mM NaCl, 3.7 mM KCl, 0.5 mM MgCl, 11 mM glucose, 4 mM Hepes, and 1.2 mM CaCl2), pH 7.4). Cells were kept for 60 min at 37° C. prior to initiating experiments and used within 5 hrs of isolation. […] Additionally, only cells whose basal contractility was between 3 and 8% were used in subsequent experiments with compounds.
Aliquots of myocytes in Tyrode's buffer were placed in perfusion chambers (series 20 RC-27NE; Warner Instruments) complete with heating platforms. Myocytes were allowed to attach, the chambers were heated to 37° C., and the cells were perfused with 37° C. Tyrode's buffer. Myocytes were field stimulated at 1 Hz in with platinum electrodes (20% above threshold). Only cells that had clear striations and were quiescent prior to pacing were used for contractility experiments. To determine basal contractility, myocytes were imaged through a 40× objective. […] Once cell contraction was stable over time, test compounds (0.01-15 μM) were perfused into the chambers on the myocytes for 5 minutes. Contractility of the myocytes and contraction and relaxation velocities were then recorded using edge detection.
Five or more individual myocytes were tested per compound from two or more different myocyte preparations. For each cell, twenty or more contractility transients at basal (defined as 1 min prior to compound infusion) and after compound addition (defined as 5 min after starting compound perfusion), were averaged and compared. These average transients were analyzed using the IonWizard software (IonOptix) to determine changes in diastolic length and fractional shortening. Fractional shortening was calculated as: ((resting length−length at peak contraction) divided by the resting length). The percent change in fractional shortening from baseline was calculated as: ((post-dose fractional shortening/basal fractional shortening)*100). The percent reduction in fractional shortening from baseline was calculated as: (100−percent change in fractional shortening from baseline). Maximum contraction and relaxation velocities (um/sec) was also determined. Results from individual cells are averaged and the SEM calculated.

The test system of assay [2] is R403Q mice (alpha cardiac myosin heavy chain mutation, familial hypertrophic cardiomyopathy model). Description: Longitudinal echocardiography in R403Q mouse model of HCM. Conditions: compound formulated in chow for 24 weeks, echocardiography every 4 weeks, versus untreated R403Q mice. In kind it is in vivo. The procedure:
Assessment over time of in vivo cardiac function by echocardiography was performed using a previously reported mouse model of familial hypertrophic cardiomyopathy, which was generated by an arginine to glutamine mutation at residue 403 (R403Q) of the alpha cardiac myosin heavy chain (MHC) gene (Geisterfer-Lowrance et al., Science. 1996 May 3; 272(5262):731-4). Cardiac dysfunction, fibrosis, and measures of cardiac hypertrophy (including ventricular wall thickness) increase with age in this mouse model (Geisterfer-Lowrance, supra; Jiang et al., Science. 2013, 342(6154):111-4).
R403Q mice received vehicle or Compound 142 formulated in chow for 24 weeks. Longitudinal echocardiography measurements were performed every 4 weeks. Echocardiography measurements were taken with mice under isoflurane (1-3%) anesthesia. 2-D M-mode images of the left ventricle were acquired in short-axis view. In vivo fractional shortening was determined by M-mode image analysis with the following calculation: ((End diastolic diameter−end systolic diameter)/end diastolic diameter×100).

For assay [3], the system named is rat cardiac contractility (left ventricle fractional shortening). Description: Echocardiography of acute effect on rat cardiac contractility, continuous IV infusion. Format: in vivo, Sprague Dawley rats. Conditions: Rattus norvegicus, plasma concentration at which fractional shortening is 50% of pre-dose baseline, estimated, read-out: IC50 (Mean ± S.D.). In short, it runs like this: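 Male Sprague Dawley rats under 1–3% isoflurane received compound in 50% PG/16% Captisol/10% DMA by jugular infusion at 1 mL/kg/h. Left-ventricle M-mode images were taken at baseline and every 5 min, with infusion stopped at up to 60% fall in fractional shortening. Plasma levels gave the estimated IC50, the concentration at which fractional shortening is 50% of baseline.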

For assay [4] the test system is unchanged. Description: Echocardiography of acute effect on rat cardiac contractility, oral gavage. Format: in vivo, Sprague Dawley rats. The conditions noted are these: for inhibition in vivo at 6 mg/kg: oral gavage. Summed up:
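Male Sprague Dawley rats under isoflurane (1-3%) anesthesia had three pre-dose baseline M-mode images of the left ventricle (parasternal long-axis view) taken at 1 minute intervals. Compound in 0.5% HPMC 2910: 0.1% Tween 80 suspension was then given as a single oral gavage dose (5 mL/kg). Fractional shortening was measured at chosen time points over 24 hours, with plasma concentrations sampled concurrently.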

SMILES strings stand for the structures. Like-named read-outs stand apart in the source and are kept apart here.

Broadly, the IC50 is the point on the concentration scale where inhibition reaches its midpoint. As a reminder, the IC10 is the concentration at which the effect reaches the 10% level.

As for `CC(C)c1nc(-c2ccc3c(c2)CC[C@H]3NC(=O)c2nnn(C)n2)no1` [Compound 142, (R)—N-(5-(5-isopropyl-1,2,4-oxadiazol-3-yl)-2,3-dihydro-1H-inden-1-yl)-2-methyl-2H-tetrazole-5-carboxamide], in assay [1], the inhibition at 5 µM was 67.8%. Moreover, the “septal and left ventricular posterior wall thickness” value in assay [2] is “attenuated increases in septal and left ventricular posterior wall thickness”. Moreover, the IC50 is 2.7 ± 0.12 µM in assay [3] and 2.9 µM in assay [4] (Rattus norvegicus, oral dosing, plasma concentration at which fractional shortening is 50% of pre-dose baseline, estimated). Moreover, the inhibition in vivo at 6 mg/kg in assay [4] (Rattus norvegicus, 1 h, 1-2 h post dose, read-out: FS (% reduction from baseline) at 1-2 h post dose (Mean ± S.D.)) was found to be 40 ± 9%; in assay [4] (Rattus norvegicus, 4 h post dose, read-out: FS (% reduction from baseline) at 4 h post dose (Mean ± S.D.)), 18 ± 11%. Besides, in assay [4] (oral dosing, plasma concentration at which, estimated), the IC10 was 0.7 µM.
